16 compounds from patent US20260138961A1, “MODULATORS OF MITOCHONDRIAL DNA REPLICATION” (Pretzel Therapeutics, Inc., priority 2022, published 2026) can be followed below.

One may read the AC50 as the concentration at which the activity in the assay is half-maximal.

The assay has as its target T1, POLγA:G848S (Homo sapiens, UniProt P54098, G848S).
T1 sequence (P54098 1-1239 G848S): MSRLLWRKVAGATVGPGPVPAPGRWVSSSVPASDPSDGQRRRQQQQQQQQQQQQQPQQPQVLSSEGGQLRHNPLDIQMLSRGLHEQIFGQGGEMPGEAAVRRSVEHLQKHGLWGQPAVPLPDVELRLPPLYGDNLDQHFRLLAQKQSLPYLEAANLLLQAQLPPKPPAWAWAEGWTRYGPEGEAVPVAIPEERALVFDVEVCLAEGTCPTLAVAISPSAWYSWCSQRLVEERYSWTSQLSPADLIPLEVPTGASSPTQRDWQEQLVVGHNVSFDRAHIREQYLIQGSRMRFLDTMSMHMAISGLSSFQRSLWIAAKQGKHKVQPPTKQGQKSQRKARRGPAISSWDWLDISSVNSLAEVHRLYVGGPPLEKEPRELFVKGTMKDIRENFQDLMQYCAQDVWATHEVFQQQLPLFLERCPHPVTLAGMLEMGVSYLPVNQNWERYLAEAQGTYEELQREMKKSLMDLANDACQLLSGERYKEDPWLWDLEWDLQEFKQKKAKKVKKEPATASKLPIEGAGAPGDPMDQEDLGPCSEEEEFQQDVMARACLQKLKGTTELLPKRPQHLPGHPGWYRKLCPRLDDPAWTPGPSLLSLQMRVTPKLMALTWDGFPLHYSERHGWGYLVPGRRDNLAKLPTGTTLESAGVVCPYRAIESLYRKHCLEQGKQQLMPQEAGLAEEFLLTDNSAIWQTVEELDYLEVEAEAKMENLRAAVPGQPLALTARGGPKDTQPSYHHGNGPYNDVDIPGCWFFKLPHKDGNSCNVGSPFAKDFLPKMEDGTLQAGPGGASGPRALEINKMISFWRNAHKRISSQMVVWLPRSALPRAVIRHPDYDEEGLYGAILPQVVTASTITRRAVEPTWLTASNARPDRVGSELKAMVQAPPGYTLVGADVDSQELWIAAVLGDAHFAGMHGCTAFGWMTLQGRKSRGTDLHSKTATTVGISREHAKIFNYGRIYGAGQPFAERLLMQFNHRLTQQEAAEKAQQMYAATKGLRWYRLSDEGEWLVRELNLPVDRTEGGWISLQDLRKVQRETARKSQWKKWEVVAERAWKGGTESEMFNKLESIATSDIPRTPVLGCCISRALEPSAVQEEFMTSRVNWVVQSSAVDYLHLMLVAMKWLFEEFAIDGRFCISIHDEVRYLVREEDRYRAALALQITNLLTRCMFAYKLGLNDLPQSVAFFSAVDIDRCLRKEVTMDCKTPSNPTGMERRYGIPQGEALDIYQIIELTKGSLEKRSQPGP
T1 sequence (Q9UHN1 1-485 partner): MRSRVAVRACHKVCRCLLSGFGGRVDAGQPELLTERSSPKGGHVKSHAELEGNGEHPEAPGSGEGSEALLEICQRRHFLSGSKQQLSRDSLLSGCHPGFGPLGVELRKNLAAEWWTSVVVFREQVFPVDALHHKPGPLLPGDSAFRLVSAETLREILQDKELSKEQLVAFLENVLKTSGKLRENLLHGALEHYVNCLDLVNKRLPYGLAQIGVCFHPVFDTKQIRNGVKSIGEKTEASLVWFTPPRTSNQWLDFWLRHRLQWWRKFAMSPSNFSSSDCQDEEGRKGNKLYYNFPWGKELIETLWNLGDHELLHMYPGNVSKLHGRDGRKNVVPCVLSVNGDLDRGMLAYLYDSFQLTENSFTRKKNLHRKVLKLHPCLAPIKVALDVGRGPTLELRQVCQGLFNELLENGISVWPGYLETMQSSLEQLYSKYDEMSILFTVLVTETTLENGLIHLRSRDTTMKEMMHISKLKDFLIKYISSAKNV
Briefly: DNA polymerization assay, POLγA:G848S mutant. Conditions: stimulation of polymerase activity, primed M13mp18 ssDNA, 37° C. 2 hours; read-out: G848S AC50. It counts as biochemical.
Turning to `Cc1cc(S(=O)(=O)Nc2cccc(C(=O)N3CCN(C)CC3)c2)c(C)cc1Cl` [Example 52, 4-chloro-2,5-dimethyl-N-(3-(4-methylpiperazine-1-carbonyl)phenyl)benzenesulfonamide], the AC50 was more than 100 µM.

Consider `Cc1cc(S(=O)(=O)Nc2csc(C(=O)N(CC(N)=O)C3CCCCC3)n2)c(C)cc1Cl` [Example 179, N-(2-amino-2-oxoethyl)-4-((4-chloro-2,5-dimethylphenyl)sulfonamido)-N-cyclohexylthiazole-2-carboxamide], for which the AC50 was more than 10 µM.

Regarding `Cc1cc(-c2cccc(NS(=O)(=O)c3cc(C)c(Cl)cc3C)c2)n[nH]1` [Example 66, 4-chloro-2,5-dimethyl-N-(3-(5-methyl-1H-pyrazol-3-yl)phenyl)benzenesulfonamide], the AC50 was found to be 1 µM.

Consider `Cc1cc(S(=O)(=O)Nc2cn(-c3ccccc3)cn2)c(C)cc1Cl` [Example 169, 4-chloro-2,5-dimethyl-N-(1-phenyl-1H-imidazol-4-yl)benzenesulfonamide], for which the AC50 is more than 100 µM.

In the case of `Cc1cc(S(=O)(=O)Nc2cccc(C(=O)N3CCCC34CC4)c2)c(C)cc1Cl` [Example 162, N-(3-(4-azaspiro[2.4]heptane-4-carbonyl)phenyl)-4-chloro-2,5-dimethylbenzenesulfonamide], the AC50 was determined as 13 µM.

Take `Cc1cc(S(=O)(=O)Nc2csc(-n3cccn3)n2)c(C)cc1Cl` [Example 178, N-(2-(1H-pyrazol-1-yl)thiazol-4-yl)-4-chloro-2,5-dimethylbenzenesulfonamide]: the AC50 is 1 µM.

Take `Cc1ccc(C)c(S(=O)(=O)Nc2cccc(C(=O)N3CCOCC3)c2)c1` [Example 29, 2,5-dimethyl-N-(3-(morpholine-4-carbonyl)phenyl)benzenesulfonamide]: the AC50 stood at 33 µM.

In the case of `Cc1cc(S(=O)(=O)Nc2cc(F)cc(-c3nccs3)c2)c(C)cc1Cl` [Example 62, 4-chloro-N-(3-fluoro-5-(thiazol-2-yl)phenyl)-2,5-dimethylbenzenesulfonamide], the AC50 is more than 100 µM.

With `Cc1cc(S(=O)(=O)N[C@H]2CCN(c3ccccc3)C2)c(C)cc1Cl` [Example 158, (S)-4-chloro-2,5-dimethyl-N-(1-phenylpyrrolidin-3-yl)benzenesulfonamide], the AC50 is more than 100 µM.

Take `Cc1cc(S(=O)(=O)Nc2csc(-c3cnn(C)c3)n2)c(C)cc1Cl` [Example 183, 4-chloro-2,5-dimethyl-N-(2-(1-methyl-1H-pyrazol-4-yl)thiazol-4-yl)benzenesulfonamide]: the AC50 turned out to be 0.5 µM.

As to `Cc1cc(S(=O)(=O)Nc2cccc(C(=O)N(C)CCO)c2)c(C)cc1Cl` [Example 56, 3-((4-chloro-2,5-dimethylphenyl)sulfonamido)-N-(2-hydoxyethyl)-N-methylbenzamide], the AC50 was determined as 56 µM.

For the compound `CC(=O)N1CCC(c2nc(NS(=O)(=O)c3cc(C)c(Cl)cc3C)cs2)CC1` [Example 163, N-(2-(1-acetylpiperidin-4-yl)thiazol-4-yl)-4-chloro-2,5-dimethylbenzenesulfonamide], the AC50 is 37 µM.

Take `Cc1ccc(C)c(S(=O)(=O)Nc2cccc(C(=O)N(C)CC3CC3)c2)c1` [Example 33, N-(cyclopropylmethyl)-3-((2,5-dimethylphenyl)sulfonamido)-N-methylbenzamide]: the AC50 is 56 µM.

For `Cc1csc(-c2cccc(NS(=O)(=O)c3cc(C)c(Cl)cc3C)c2)n1` [Example 20, 4-chloro-2,5-dimethyl-N-(3-(4-methylthiazol-2-yl)phenyl)benzenesulfonamide], the AC50 came out at 2 µM.

Take `Cc1cc(S(=O)(=O)Nc2cc(C(=O)N3CCC[C@H]3C)ccc2F)c(C)cc1Cl` [Example 50, (R)-4-chloro-N-(2-fluoro-5-(2-methylpyrrolidine-1-carbonyl)phenyl)-2,5-dimethylbenzenesulfonamide]: the AC50 turned out to be 11 µM.

Take `CC(=O)N1CCN(C(=O)c2cccc(NS(=O)(=O)c3cc(C)ccc3C)c2)CC1` [Example 30, N-(3-(4-acetylpiperazine-1-carbonyl)phenyl)-2,5-dimethylbenzenesulfonamide]: the AC50 was 22 µM.
